This note sets out measurements from ChEMBL document CHEMBL1201862, “PubChem BioAssay data set” (2004).

Molecules are shown by their SMILES.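 Cells were grown in 96-well plates and exposed to each compound for 48 hours at five concentrations; endpoints were interpolated linearly between bracketing concentrations, or set to the highest concentration if not reached. GI50: concentration for 50% inhibition of growth.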 Active and inactive are the calls of the source. Rule as the data show it: active = GI50 up to about 1.1 µM and inactive = higher. Some results are limits rather than exact numbers.

Among the test systems are SF-539; MCF7; NCI-H522; NCI/ADR-RES; UO-31; NCI-H23; SF-295; TK-10; NCI-H226; K562; A549; CCRF-CEM; U-251; SK-MEL-2; SK-OV-3; HCT-15; MDA-N; SNB-19; HCC 2998; CAKI-1.
Test in all cases: growth of human tumour cells (NCI), 48 h

Regarding `O=C(O)c1ccc(C(=O)Nc2cccc3ccccc23)c(C(=O)O)c1`, the GI50 with SF-539, in the assay with MCF7, in the assay on NCI-H522, with NCI/ADR-RES, with UO-31 and in the assay on NCI-H23 was > 100 µM (inactive) each time. The GI50 in the assay on SF-295, with TK-10, in the assay with NCI-H226, in the assay with K562, in the assay on A549 and in the assay with CCRF-CEM was > 100 µM (inactive) in each case. Further, the GI50 in the assay on U-251 was > 100 µM (inactive); in the assay on SK-MEL-2 it was > 100 µM (inactive); in the assay with SK-OV-3, > 100 µM (inactive); in the assay with HCT-15 it was more than 100 µM; in the assay with MDA-N, > 100 µM (inactive); with SNB-19, > 100 µM (inactive). For the same compound, the GI50 in the assay with HCC 2998 and in the assay with CAKI-1 was > 100 µM (inactive) throughout.

Turning to `OC1COC(OCc2ccccc2)C(O)C1O` (stereo not drawn), the GI50 in the assay with SF-539, in the assay with MCF7, in the assay on NCI-H522, in the assay on NCI/ADR-RES, in the assay on UO-31 and with NCI-H23 was > 100 µM (inactive) each time. In addition, the GI50 in the assay with SF-295, in the assay on TK-10, in the assay on NCI-H226, with K562, in the assay with A549 and with CCRF-CEM was > 100 µM (inactive) throughout. The GI50 was > 100 µM (inactive) in the assay on U-251; > 100 µM (inactive) in the assay on SK-MEL-2; > 100 µM (inactive) in the assay on SK-OV-3; more than 100 µM with HCT-15; > 100 µM (inactive) in the assay with MDA-N; > 100 µM (inactive) in the assay with SNB-19. The GI50 in the assay on HCC 2998 and with CAKI-1 was > 100 µM (inactive) throughout.

`CCOC(=O)[C@H](O)[C@@H](O)C(=O)NCc1ccc(C(=O)c2ccccc2)cc1`: the GI50 in the assay on SF-539, with MCF7, in the assay on NCI-H522, in the assay on NCI/ADR-RES, in the assay on UO-31 and with NCI-H23 was > 100 µM (inactive) in each case. Further, the GI50 in the assay with SF-295, with TK-10, in the assay on NCI-H226, in the assay with K562, in the assay with A549 and in the assay on CCRF-CEM was > 100 µM (inactive) each time. Besides, the GI50 with U-251 is > 100 µM (inactive); in the assay with SK-MEL-2, > 100 µM (inactive); in the assay on SK-OV-3, > 100 µM (inactive); in the assay on HCT-15 it was more than 100 µM; in the assay on MDA-N, > 100 µM (inactive); in the assay with SNB-19 it was > 100 µM (inactive). Further, the GI50 with HCC 2998 and with CAKI-1 was > 100 µM (inactive) each time.

With `Cc1ccc2nc(N/N=C/c3ccc(C)s3)cc(C)c2c1`, the GI50 in the assay with SF-539 was 11 µM (inactive); in the assay on MCF7, 6.79 µM (inactive); in the assay on NCI-H522, 4.52 µM (inactive); in the assay with NCI/ADR-RES, 12.3 µM (inactive); in the assay on UO-31, 9.82 µM (inactive); in the assay on NCI-H23, 7.98 µM (inactive). For the same compound, the GI50 was 7.94 µM (inactive) with SF-295; 8.97 µM (inactive) in the assay on TK-10; 10.1 µM (inactive) in the assay on NCI-H226; 3.99 µM (inactive) with K562; 6.79 µM (inactive) in the assay on A549; 5.11 µM (inactive) in the assay on CCRF-CEM. Moreover, the GI50 was 9.51 µM (inactive) with U-251; 19 µM (inactive) with SK-MEL-2; 18.3 µM (inactive) with SK-OV-3; 4.52 µM in the assay on HCT-15; 7.8 µM (inactive) in the assay on MDA-N; 12.9 µM (inactive) with SNB-19. Besides, the GI50 is 4.69 µM (inactive) in the assay on HCC 2998 and 17.1 µM (inactive) in the assay with CAKI-1.

For the compound `COc1ccccc1C1C2=C(COC2=O)Oc2cc3c(cc21)OCO3` (stereo not drawn), the GI50 in the assay on SF-539 was 1.97 µM (inactive); with MCF7 it was 1.67 µM (inactive); in the assay on NCI-H522, 0.619 µM (active); with NCI/ADR-RES, 2.31 µM (inactive); in the assay with UO-31, 3.56 µM (inactive); in the assay with NCI-H23, 3.22 µM (inactive). For the same compound, the GI50 was 2.17 µM (inactive) with SF-295; 12.4 µM (inactive) in the assay with TK-10; 5.31 µM (inactive) in the assay on NCI-H226; 0.706 µM (active) in the assay with K562; 3.87 µM (inactive) in the assay on A549; 2.13 µM (inactive) with CCRF-CEM. Further, the GI50 with U-251 is 3.66 µM (inactive); in the assay on SK-MEL-2 it was 5.15 µM (inactive); with SK-OV-3 it was 3.46 µM (inactive); in the assay with HCT-15 it was 1.16 µM; in the assay with MDA-N it was 0.245 µM (active); in the assay with SNB-19 it was 3.19 µM (inactive). Moreover, the figures for the GI50 in the assay on HCC 2998 and in the assay on CAKI-1 were 3.23 µM (inactive) and 3.55 µM (inactive), respectively.

For the compound `CCCCC(=O)Nc1ccc2cc(C(=O)OC)c(ON3C(=O)c4ccccc4C3=O)nc2n1`, the GI50 was 18 µM (inactive) in the assay on SF-539; 43.2 µM (inactive) in the assay on MCF7; 23.3 µM (inactive) with NCI-H522; 32.6 µM (inactive) with NCI/ADR-RES; 18.2 µM (inactive) in the assay on UO-31; 44.1 µM (inactive) in the assay on NCI-H23. Further, the GI50 was 33.8 µM (inactive) in the assay with SF-295; 14.6 µM (inactive) in the assay on TK-10; 22.5 µM (inactive) in the assay on NCI-H226; 33.2 µM (inactive) with K562; 27.2 µM (inactive) with A549; 71.3 µM (inactive) in the assay on CCRF-CEM. Further, the GI50 in the assay with U-251 was 26.5 µM (inactive); in the assay on SK-MEL-2 it was 37.5 µM (inactive); in the assay with SK-OV-3, 48.1 µM (inactive); with HCT-15 it was 40.6 µM; in the assay with MDA-N it was 22.3 µM (inactive); in the assay on SNB-19 it was 27.9 µM (inactive). Also, the values for the GI50 with HCC 2998 and in the assay with CAKI-1 were 22.6 µM (inactive) and 22.2 µM (inactive), respectively.

For `O=CC(=C(I)I)c1ccccc1`, the GI50 with SF-539 is 2.35 µM (inactive); with MCF7 it was 3.11 µM (inactive); in the assay on NCI-H522, 2 µM (inactive); with NCI/ADR-RES, 14.6 µM (inactive); in the assay with UO-31 it was 2.69 µM (inactive); in the assay with NCI-H23, 2.05 µM (inactive). Also, the GI50 in the assay with SF-295 is 7.78 µM (inactive); in the assay with TK-10 it was 2.45 µM (inactive); in the assay on NCI-H226, 13.4 µM (inactive); with K562 it was 0.264 µM (active); in the assay on A549 it was 20.2 µM (inactive); with CCRF-CEM, 0.2 µM (active). Besides, the GI50 in the assay on U-251 was 3.58 µM (inactive); with SK-MEL-2, 6.49 µM (inactive); in the assay with SK-OV-3 it was 15.9 µM (inactive); in the assay with HCT-15, 1.82 µM; in the assay on MDA-N, 2.04 µM (inactive); with SNB-19, 7.78 µM (inactive). Moreover, the GI50 is 10.5 µM (inactive) in the assay with HCC 2998 and 3.03 µM (inactive) with CAKI-1.

Consider `COc1cc(C2c3cc4c(cc3OC(NCCO)C2C)OCO4)cc(OC)c1OC` (stereo not drawn), for which the GI50 with SF-539 was 0.232 µM (active); in the assay on MCF7, 0.344 µM (active); with NCI-H522 it was 0.241 µM (active); with NCI/ADR-RES, 0.807 µM (active); in the assay with UO-31, 1.52 µM (inactive); with NCI-H23, 1.19 µM (inactive). For the same compound, the GI50 in the assay on SF-295 is 0.274 µM (active); in the assay on TK-10, 15.9 µM (inactive); in the assay on NCI-H226 it was 0.644 µM (active); in the assay with K562 it was 0.195 µM (active); in the assay with A549, 0.762 µM (active); in the assay on CCRF-CEM it was 0.197 µM (active). Moreover, the GI50 with U-251 is 0.406 µM (active); in the assay on SK-MEL-2 it was 3.42 µM (inactive); in the assay with SK-OV-3, 0.553 µM (active); in the assay on HCT-15, 0.347 µM; in the assay on MDA-N it was 0.401 µM (active); with SNB-19, 1.32 µM (inactive). The GI50 in the assay with HCC 2998 is 0.824 µM (active); with CAKI-1 it was 0.485 µM (active).

Regarding `COC(=O)/C(C#N)=C1\NC(=O)CC(c2ccccc2)C1C#N` (stereo not drawn), the GI50 in the assay with SF-539, in the assay on MCF7, in the assay with NCI-H522, in the assay on NCI/ADR-RES, with UO-31 and in the assay on SF-295 was > 100 µM (inactive) throughout. Besides, the GI50 in the assay with TK-10, in the assay with NCI-H226, in the assay on K562, with A549, with CCRF-CEM and in the assay with SK-MEL-2 was > 100 µM (inactive) each time. Further, the GI50 in the assay on SK-OV-3 is > 100 µM (inactive); with HCT-15, more than 100 µM; in the assay on MDA-N it was > 100 µM (inactive); in the assay with SNB-19, > 100 µM (inactive); with HCC 2998, > 100 µM (inactive); in the assay with CAKI-1, > 100 µM (inactive).

Turning to `COc1c(CC=C(C)C)c(O)c(C(CC(C)C)c2c(O)c(CC=C(C)C)c(O)c(C(C)=O)c2O)c(O)c1C(C)=O` (stereo not drawn), the GI50 in the assay with SF-539 is 1.16 µM (inactive); in the assay with MCF7, 0.385 µM (active); with NCI-H522, 0.2 µM (active); with NCI/ADR-RES it was 0.729 µM (active); in the assay with UO-31, 3.08 µM (inactive); with NCI-H23, 0.275 µM (active). The GI50 with SF-295 is 0.521 µM (active); in the assay on TK-10, 1.03 µM (active); with NCI-H226 it was 1.24 µM (inactive); in the assay on K562 it was 0.29 µM (active); in the assay with A549 it was 1.8 µM (inactive); with CCRF-CEM it was 0.278 µM (active). Besides, the GI50 in the assay on U-251 was 0.703 µM (active); in the assay with SK-MEL-2 it was 0.504 µM (active); with SK-OV-3, 2.08 µM (inactive); in the assay on HCT-15, 0.4 µM; with MDA-N, 2.16 µM (inactive); in the assay on SNB-19 it was 1.15 µM (inactive). The GI50 with HCC 2998 is 0.537 µM (active); with CAKI-1, 1.21 µM (inactive).
